# Assay results published in US20260262643A1, “HERBICIDAL BENZOXAZINES” (FMC CORPORATION, priority 2022, published 2026).
# Key:
# [1] = tested on: horseweed; experiment: Test C postemergence; type: in vivo, Erigeron canadensis; conditions: 10 days, 0 to 100 scale (0 no effect, 100 complete control)
# Outline: (§1)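 Greenhouse herbicide screen, 10-day duration. Test chemicals in solvent/surfactant blend were sprayed onto soil at sowing (pre) or onto 2–10 cm seedlings at one to two leaves (post); injury scored visually against controls, 0 no effect to 100 complete control.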
# [2] = tested on: soybean; experiment: Test C preemergence; type: in vivo, Glycine max
# Outline: as §1
# [3] = tested on: pigweed, palmer; experiment: Test C preemergence; type: in vivo, Amaranthus palmeri
# Outline: as §1
# [4] = tested on: ragweed; experiment: Test C postemergence; type: in vivo, Ambrosia artemisiifolia; conditions: 10 days, 0 to 100 scale (0 no effect, 100 complete control)
# Outline: as §1
# [5] = tested on: foxtail, giant; experiment: Test C preemergence; type: in vivo, Setaria faberi
# Outline: as §1
# [6] = tested on: oat, wild; experiment: Test C preemergence; type: in vivo, Avena fatua
# Outline: as §1
# [7] = tested on: kochia; experiment: Test C postemergence; type: in vivo, Bassia scoparia; conditions: 10 days, 0 to 100 scale (0 no effect, 100 complete control)
# Outline: as §1
# [8] = tested on: barnyardgrass; experiment: Test D flooded paddy test; type: in vivo, Echinochloa crus-galli; conditions: 250 g ai/ha, applied to paddy water, visual rating after 13 to 14 days, scale 0 to 100 (0 no effect, 100 complete control)
# Outline: (§2)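 At the 2-leaf stage, floodwater 3 cm deep received the test compound; that depth persisted throughout. Plants scored visually 13 to 14 days on, 0 (no effect) to 100 (complete control), dash indicating no result.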
# [9] = tested on: ryegrass, Italian; experiment: Test C postemergence; type: in vivo, Lolium multiflorum; conditions: 10 days, 0 to 100 scale (0 no effect, 100 complete control)
# Outline: as §1
# [10] = tested on: soybean; experiment: Test C postemergence; type: in vivo, Glycine max; conditions: 10 days, 0 to 100 scale (0 no effect, 100 complete control)
# Outline: as §1
# [11] = tested on: rice; experiment: Test D flooded paddy test; type: in vivo, Oryza sativa; conditions: 250 g ai/ha, applied to paddy water, visual rating after 13 to 14 days, scale 0 to 100 (0 no effect, 100 complete control)
# Outline: as §2
# [12] = tested on: corn; experiment: Test C preemergence; type: in vivo, Zea mays
# Outline: as §1
# [13] = tested on: wheat; experiment: Test C preemergence; type: in vivo, Triticum aestivum
# Outline: as §1
# [14] = tested on: ryegrass, Italian; experiment: Test C preemergence; type: in vivo, Lolium multiflorum
# Outline: as §1
# [15] = tested on: pigweed, palmer; experiment: Test C postemergence; type: in vivo, Amaranthus palmeri; conditions: 10 days, 0 to 100 scale (0 no effect, 100 complete control)
# Outline: as §1
# [16] = tested on: ragweed; experiment: Test C preemergence; type: in vivo, Ambrosia artemisiifolia
# Outline: as §1
# [17] = tested on: barnyardgrass; experiment: Test C postemergence; type: in vivo, Echinochloa crusgalli; conditions: 10 days, 0 to 100 scale (0 no effect, 100 complete control)
# Outline: as §1
# [18] = tested on: ducksalad; experiment: Test D flooded paddy test; type: in vivo, Heteranthera limosa; conditions: 250 g ai/ha, applied to paddy water, visual rating after 13 to 14 days, scale 0 to 100 (0 no effect, 100 complete control)
# Outline: as §2
# [19] = tested on: galium; experiment: Test C postemergence; type: in vivo, Galium aparine; conditions: 10 days, 0 to 100 scale (0 no effect, 100 complete control)
# Outline: as §1
# [20] = tested on: corn; experiment: Test C postemergence; type: in vivo, Zea mays; conditions: 10 days, 0 to 100 scale (0 no effect, 100 complete control)
# Outline: as §1
# [21] = tested on: kochia; experiment: Test C preemergence; type: in vivo, Bassia scoparia
# Outline: as §1
# [22] = tested on: barnyardgrass; experiment: Test C preemergence; type: in vivo, Echinochloa crusgalli
# Outline: as §1
# [23] = tested on: blackgrass; experiment: Test C preemergence; type: in vivo, Alopecurus myosuroides
# Outline: as §1
# [24] = tested on: sedge, umbrella; experiment: Test D flooded paddy test; type: in vivo, Cyperus difformis; conditions: 250 g ai/ha, applied to paddy water, visual rating after 13 to 14 days, scale 0 to 100 (0 no effect, 100 complete control)
# Outline: as §2
# [25] = tested on: oat, wild; experiment: Test C postemergence; type: in vivo, Avena fatua; conditions: 10 days, 0 to 100 scale (0 no effect, 100 complete control)
# Outline: as §1
# [26] = tested on: blackgrass; experiment: Test C postemergence; type: in vivo, Alopecurus myosuroides; conditions: 10 days, 0 to 100 scale (0 no effect, 100 complete control)
# Outline: as §1
# [27] = tested on: foxtail, giant; experiment: Test C postemergence; type: in vivo, Setaria faberi; conditions: 10 days, 0 to 100 scale (0 no effect, 100 complete control)
# Outline: as §1
# [28] = tested on: wheat; experiment: Test C postemergence; type: in vivo, Triticum aestivum; conditions: 10 days, 0 to 100 scale (0 no effect, 100 complete control)
# Outline: as §1
# [29] = 500 g ai/ha, preemergence, 0 to 100 scale (0 no effect, 100 complete control)
# [30] = Preemergence, 125 g ai/ha, 0 to 100 scale, 0 no effect, 100 complete control
compound,measurement,setting,value
CCc1ncn(-c2cccc(C(=O)N3CC(C(F)(F)F)Oc4c(C)cccc43)c2)n1 (stereo not shown) [Compound 344],"Plant response rating, Horseweed","[1]; 500 g ai/ha, postemergence",30
same,"Plant response rating, Horseweed","[1]; Postemergence, 125 g ai/ha",30
same,Soybean plant response rating,[2]; [29],50
same,"Plant response rating, Soybean",[2]; [30],0
same,"Pigweed, Palmer plant response rating",[3]; [29],100
same,"Plant response rating, Pigweed, Palmer",[3]; [30],90
same,"Plant response rating, Ragweed","[4]; 500 g ai/ha, postemergence",70
same,"Plant response rating, Ragweed","[4]; Postemergence, 125 g ai/ha",70
same,"Foxtail, Giant plant response rating",[5]; [29],100
same,"Plant response rating, Foxtail, Giant",[5]; [30],100
same,"Oat, Wild plant response rating",[6]; [29],90
same,"Plant response rating, Oat, Wild",[6]; [30],0
same,"Plant response rating, Kochia","[7]; 500 g ai/ha, postemergence",80
same,"Plant response rating, Kochia","[7]; Postemergence, 125 g ai/ha",70
same,"Plant response rating, Barnyardgrass (Flood)",[8],25
same,"Plant response rating, Ryegrass, Italian","[9]; 500 g ai/ha, postemergence",100
same,"Plant response rating, Ryegrass, Italian","[9]; Postemergence, 125 g ai/ha",80
same,"Plant response rating, Soybean","[10]; 500 g ai/ha, postemergence",100
same,"Plant response rating, Soybean","[10]; Postemergence, 125 g ai/ha",80
same,"Plant response rating, Rice (Flood)",[11],0
same,Corn plant response rating,[12]; [29],30
same,"Plant response rating, Corn",[12]; [30],20
same,Wheat plant response rating,[13]; [29],80
same,"Plant response rating, Wheat",[13]; [30],40
same,"Ryegrass, Italian plant response rating",[14]; [29],100
same,"Plant response rating, Ryegrass, Italian",[14]; [30],90
same,"Plant response rating, Pigweed, Palmer","[15]; 500 g ai/ha, postemergence",40
same,"Plant response rating, Pigweed, Palmer","[15]; Postemergence, 125 g ai/ha",20
same,Ragweed plant response rating,[16]; [29],50
same,"Plant response rating, Ragweed",[16]; [30],0
same,"Plant response rating, Barnyardgrass","[17]; 500 g ai/ha, postemergence",70
same,"Plant response rating, Barnyardgrass","[17]; Postemergence, 125 g ai/ha",40
same,"Plant response rating, Ducksalad (Flood)",[18],30
same,"Plant response rating, Galium","[19]; 500 g ai/ha, postemergence",100
same,"Plant response rating, Galium","[19]; Postemergence, 125 g ai/ha",90
same,"Plant response rating, Corn","[20]; 500 g ai/ha, postemergence",90
same,"Plant response rating, Corn","[20]; Postemergence, 125 g ai/ha",30
same,Kochia plant response rating,[21]; [29],100
same,"Plant response rating, Kochia",[21]; [30],60
same,Barnyardgrass plant response rating,[22]; [29],100
same,"Plant response rating, Barnyardgrass",[22]; [30],80
same,Blackgrass plant response rating,[23]; [29],100
same,"Plant response rating, Blackgrass",[23]; [30],90
same,"Plant response rating, Sedge, Umbrella (Flood)",[24],70
same,"Plant response rating, Oat, Wild","[25]; 500 g ai/ha, postemergence",90
same,"Plant response rating, Oat, Wild","[25]; Postemergence, 125 g ai/ha",60
same,"Plant response rating, Blackgrass","[26]; 500 g ai/ha, postemergence",90
same,"Plant response rating, Blackgrass","[26]; Postemergence, 125 g ai/ha",80
same,"Plant response rating, Foxtail, Giant","[27]; 500 g ai/ha, postemergence",90
same,"Plant response rating, Foxtail, Giant","[27]; Postemergence, 125 g ai/ha",70
same,"Plant response rating, Wheat","[28]; 500 g ai/ha, postemergence",80
same,"Plant response rating, Wheat","[28]; Postemergence, 125 g ai/ha",30
